Results reported in paper PMC8318231, “Rate-of-Kill (RoK) assays to triage large compound sets for Chagas disease drug discovery: Application to GSK Chagas Box” (PLoS Neglected Tropical Diseases, 2021).

Key:
TcCYP51 = conditions: cited from earlier work; for CYP51 pIC50: formerly reported
[1] = test system: T. cruzi intracellular amastigotes in H9c2 cells; experiment: Rate-of-Kill (RoK) high-content imaging assay, amastigotes per cell (AM/CELL) and curve descriptors; format: cell-based, Trypanosoma cruzi; parameters: key to ME_24h / ME_48h / ME_72h: % reduction in parasite burden (cidal response); t50pct_MCC50 / t50pct_Cmax: unit not given here; conditions: for ME_24h: 24h; for ME_48h: 48h; for ME_72h: 72h; for tlag_Cmax / t50pct_Cmax / t50%_Cmax: at Cmax; for ME_24h (%): maximum effect at 24 h; for ME_24h (%) / ME_48h (%) / ME_72h (%): RoK assay; for ME_48h (%): maximum effect at 48 h; for ME_72h (%): maximum effect at 72 h; for ME 24h (maximum effect at 24 hours, intracellular amastigotes) / Emax: maximum percentage of parasite burden reduction reached by any concentration, 24 hours; for Emax: Trypanosoma cruzi, H9c2, read-out: ME 24h (maximum effect at 24 hours, intracellular amastigotes)
Procedure: For this high-content intracellular imaging assay, H9c2 cells were seeded in 225 cm^2 T- FLASK in DMEM with 10% FBS for 4 h to allow attachment. T. cruzi trypomastigotes, collected at days 5 to 8 after infection from LLC-MK2 parasite infected cultures, were allowed to swim out for 4 h at 37°C from a centrifuged pellet (1,600 x g / 10 min). Trypomastigotes were then collected and counted in a CASY Cell Counter using the 60 μm capillary. Trypomastigotes, in supplemented DMEM, were added to H9c2 cultures in a multiplicity of infection (MOI) of 8 and incubated for 18 h. Cells were washed once with PBS before incubation of the infected H9c2 monolayer with trypsin (Life-Technologies) to detach cells from the flask. Cells were counted in a CASY Cell Counter, using the 150 μm capillary, and their density set at 5 x 10^4 cells/mL in supplemented DMEM. Infected H9c2 were dispensed into 384-well plates at 50 μL per well using a Multidrop Combi dispenser. Control wells used to determine a 100% parasitic growth (full 6th column of each plate) were left untreated, whereas not infected cells were added in the control wells used as 0% parasite growth (or 100% parasite growth inhibition; full 18th column of each plate). The four plates corresponding to each RoK assay were predispensed for the same mother plate. […] Cultures were then fixed and stained with 50 μL per well of a PBS solution containing 4% formaldehyde and 2 μM DRAQ5 DNA dye (BioStatus, UK). Then plates were read in a PerkinElmer Opera Phenix using a 20x objective, 3 fields per well. DRAQ5 signal was detected using 640 nm excitation laser and a 690/50 nm emission detection filter. Automated image analysis was performed with a script developed on Acapella High Content Imaging and Analysis Software (PerkinElmer). Two outputs were provided for each sample well: (1) number of host cells nuclei to determine drug-related cytotoxicity (aka H9c2) and (2) number of amastigotes per cell as infection level measurement (aka AM/CELL). Each output is plotted as a time course for each compound at every concentration. This assay was adapted from Alonso-Padilla et al. and Peña et al..
To identify and classify the different compounds, the number of amastigotes per cell (AM/CELL) raw data obtained in rate of kill assay are normalised using the average of C1 (infected cells) at time 4 hours as 0% effect and the average of C2 (non-infected cells) for each time as 100% effect, according to the following Eq 1: %CIDALRESPONSE=100*[Avg_C14h-RawData]/[Avg_C14h-Avg_C2] (1)
• ME (Maximum Effect) is the maximum percentage of parasite burden reduction reached by any compound concentration. Compounds that decrease the initial parasite load will show a positive value of ME, whereas compounds that allow the progression of infection will render a negative ME value. […] It is calculated for the MCC50 (t50%_MCC50) and for the maximum concentration (t50%_Cmax). […] The value of this parameter is not either interpolated or extrapolated, and it refers to the first experimental time-course point at which a 50% of effect is reached or exceeded. • tlag defines the time elapsed for one particular concentration to reduce parasite burden between two consecutive points at any moment of the time course. It is calculated for the MCC50 (tlag_MCC50) and for the maximum concentration (tlag_Cmax). The value of this parameter is not either interpolated or extrapolated, and it refers to the first experimental time-course point of a positive slope in the normalised plot (i.e. %Cidal_Response). • Cmin_Tox (Minimal CytoToxic Concentration) is the lowest compound concentration that is reducing the number of host mammalian cells below 50% of initial cell density. Cytotoxic compounds may mislead a bona fide antiparasitic action.

SMILES	CYP51 pIC50 (TcCYP51)	ME_24h ([1]; figure 5)	ME_48h ([1]; figure 5)	ME_72h ([1]; figure 5)	MCC50 ([1]; RoK curve descriptor) [µM]	MCCE ([1]; RoK curve descriptor) [µM]	AM/CELL NORM ([1]; Time 4, sheet figure 4 A)	AM/CELL NORM ([1]; Time 24, sheet figure 4 A)	AM/CELL NORM ([1]; Time 48, sheet figure 4 A)	AM/CELL NORM ([1]; Time 72, sheet figure 4 A)	tlag_Cmax [1] [h]	t50pct_Cmax ([1]; figure 5)	tlag_Cmax ([1]; figure 5)	t50pct_MCC50 ([1]; at MCC50, figure 5)	tlag_MCC50 ([1]; at MCC50, figure 5)	MCCE ([1]; figure 5)	ME_24h (%) [1] [%]	ME_48h (%) [1] [%]	ME_72h (%) [1] [%]	ME 24h (maximum effect at 24 hours, intracellular amastigotes) [1] [%]	further results
CS(=O)(=O)c1cccc(-c2cnc(N)c3c(-c4ccc(CO)cc4)csc23)c1.O=C(O)C(F)(F)F [TCMDC-143410]	5.5	16.9023	39.285	41.8133	1.9	1.2	25.2958	6.562	-1.837	13.104	36.0	72	36	72	38	1.235	16.9	39.3	41.8	40.1676	t50%_MCC50 ([1]; at MCC50): 72.0 h; tlag_MCC50 ([1]; at MCC50): 4.0 h; MCC50 ([1]; figure 5, in µM): 25.9259
O=C(CSc1ccc(F)cc1)N[C@@H](Cc1cnc[nH]1)C(=O)NCCc1ccccc1.O=C(O)C(F)(F)F [TCMDC-143317]	7.1	-217.337	-137.825	44.5659	50.0	1.2	-0.3431	-195.022	-169.506	59.3586	24.0	72	24	72	48	1.235	-217.3	-137.8	44.6	-157.067	t50%_Cmax [1]: 72.0 h; t50%_MCC50 ([1]; at MCC50): 72.0 h; tlag_MCC50 ([1]; at MCC50): 24.0 h; MCC50 ([1]; figure 5): 50 µM
O=c1[nH]cnc2c([C@@H]3O[C@H](CO)[C@@H](O)[C@H]3O)n[nH]c12 [TCMDC-143083, Formycin B]	< 4	45.1391	64.8809	83.4402	3.7	0.6	22.2526	28.621	68.9466	69.7149	4.0	48	4	60	4	0.6173	45.1	64.9	83.4		ME (maximum effect) in RoK assay (in words) [1]: ME positive for all times; cidality in the RoK assay (in words) [1]: cidal; Emax [1]: 48.3%; t50%_Cmax [1]: 48.0 h; t50%_MCC50 ([1]; at MCC50): 60.0 h; tlag_MCC50 ([1]; at MCC50): 4.0 h; MCC50 ([1]; figure 5, in µM): 3.7037
NC(=O)c1ccccc1Nc1nc(NC2CCCCC2)nc2[nH]ccc12 [TCMDC-143314]	< 4	-235.508	-846.189	-1441.39		0.6					72.0	72	72	72	72	0.6173	-235.5	-846.2	-1441.4	91.926	AM/CELL NORM ([1]; Time 4, figure 4 A): -0.353; AM/CELL NORM ([1]; Time 24, figure 4 A): -235.508; AM/CELL NORM ([1]; Time 48, figure 4 A): -898.709; AM/CELL NORM ([1]; Time 72, figure 4 A): -1946.1; MCC50 ([1]; figure 5): 50 µM
CCn1nccc1CN(C)C(=O)C=Cc1ccc(Cl)cc1 [TCMDC-143325]	6.5	-25.9716	-135.889	23.6762		0.6	13.1334	-25.9716	-135.889	23.6762	48.0	72	48	72	72	0.6173	-26.0	-135.9	23.7	-25.9716	MCC50 ([1]; figure 5): 50 µM
CC1CS(=O)(=O)CCN1/N=C/c1ccc([N+](=O)[O-])o1 (centres unmarked) [Nifurtimox, nifurtimox, reference compound]	< 4	79.7791	100.284	96.6694	7.5	1.9					4.0	25.3333	4	48.2222	8.889	1.852	79.8	100.3	96.7		CYP51 mean (TcCYP51; TcCYP51 enzyme inhibition, mean, figure 1B, ref original boxes paper): 4.3; ME (maximum effect) in RoK assay (in words) [1]: higher ME values close to 100%; tlag (in words) [1]: short t-lag values; t50pct_Cmax (t50%_Cmax) ([1]; Fig 2C, average, time to reduce 50% of initial parasite load at maximum concentration): 24 h; AM/CELL NORM ([1]; Time 4, figure 4 A): -6.175; AM/CELL NORM ([1]; Time 24, figure 4 A): 78.541; AM/CELL NORM ([1]; Time 48, figure 4 A): 98.3875; AM/CELL NORM ([1]; Time 72, figure 4 A): 101.766; Emax [1]: 81.7%; t50%_Cmax [1]: 24.0 h; t50%_MCC50 ([1]; at MCC50): 48.2 h; tlag_MCC50 ([1]; at MCC50): 8.9 h; MCC50 ([1]; figure 5, in µM): 7.545
CN(C(=O)Nc1ccc2c(c1)CCN(C1CCC1)CC2)c1ccc(C#N)cc1.Cl [TCMDC-143526]	< 4	-107.476	-30.6533	30.9234		1.9	4.08	-107.476	-30.6533	30.9234	24.0	72	24	72	72	1.852	-107.5	-30.7	30.9	-107.476	MCC50 ([1]; figure 5): 50 µM
Cc1nnnn1-c1cccc(C(=O)N2CCC[C@@]3(C)c4ncncc4CCC23)c1 (some centres unmarked) [TCMDC-143148]	4.6	-108.08	-0.7839	73.626	1.9	0.6	4.786	-133.046	-35.529	70.8755	24.0	72	24	72	24	0.6173	-108.1	-0.8	73.6	-108.08	t50%_Cmax [1]: 72.0 h; t50%_MCC50 ([1]; at MCC50): 72.0 h; tlag_MCC50 ([1]; at MCC50): 24.0 h; MCC50 ([1]; figure 5, in µM): 1.852
